Measurements from US20140249135A1, “PIM KINASE INHIBITORS AND METHODS OF THEIR USE” (NOVARTIS AG, priority 2007, published 2014).
Where two headings read alike, the source gives them in different places.

Experiments:
Pim1 kinase = Pim1 kinase (Homo sapiens, UniProt P11309); assay: Pim1 ATP depletion assay; type: biochemical; conditions: Pim1 ATP depletion assay;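 further: Luciferase-luciferin luminescence readout of residual ATP after PIM1 transfers phosphate to a peptide substrate, 40 µM ATP added, reaction run to roughly half ATP consumption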
Chain of Pim1 kinase (P11309 whole entry): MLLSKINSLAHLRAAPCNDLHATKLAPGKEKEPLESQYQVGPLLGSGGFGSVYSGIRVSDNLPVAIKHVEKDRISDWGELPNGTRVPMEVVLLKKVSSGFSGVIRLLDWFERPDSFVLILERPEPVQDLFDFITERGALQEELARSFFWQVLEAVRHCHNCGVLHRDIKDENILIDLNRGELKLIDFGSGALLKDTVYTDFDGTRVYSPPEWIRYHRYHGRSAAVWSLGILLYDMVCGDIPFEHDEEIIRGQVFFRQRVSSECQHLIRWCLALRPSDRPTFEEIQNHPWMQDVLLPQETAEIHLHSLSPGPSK

Pim2 kinase = Pim2 kinase (Homo sapiens, UniProt Q9P1W9); assay: Pim2 ATP depletion assay; type: biochemical;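 further: Luciferase-based luminescent readout of ATP remaining after PIM2 phosphorylates a BAD peptide, final 5 nM enzyme, 4 µM ATP, 10 µM peptide, 2.5% DMSO, run to roughly half ATP consumption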
Chain of Pim2 kinase (Q9P1W9 whole entry): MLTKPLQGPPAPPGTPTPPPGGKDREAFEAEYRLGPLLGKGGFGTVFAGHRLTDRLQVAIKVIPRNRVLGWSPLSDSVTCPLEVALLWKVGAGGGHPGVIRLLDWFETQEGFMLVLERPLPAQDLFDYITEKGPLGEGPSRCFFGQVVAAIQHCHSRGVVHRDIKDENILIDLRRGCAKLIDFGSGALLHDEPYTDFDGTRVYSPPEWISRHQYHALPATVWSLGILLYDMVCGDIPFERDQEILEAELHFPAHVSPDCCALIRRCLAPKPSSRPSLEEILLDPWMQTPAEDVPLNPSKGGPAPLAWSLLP

Pim3 kinase = Pim3 kinase (Homo sapiens, UniProt Q86V86); assay: Pim3 ATP depletion assay; type: biochemical
[1] = biological target: T1, human full length PKCE enzyme (Homo sapiens, UniProt Q02156); assay: In vitro PKCE assay; type: biochemical; conditions: 10 nM enzyme, 40 uM peptide substrate, 20 uM ATP, KinaseGlo Plus readout; read-out: PKCε IC50
T1 construct: human full length PKCE enzyme purchased from InVitrogen; purchased InVitrogen
T1 sequence (Q02156 1-737): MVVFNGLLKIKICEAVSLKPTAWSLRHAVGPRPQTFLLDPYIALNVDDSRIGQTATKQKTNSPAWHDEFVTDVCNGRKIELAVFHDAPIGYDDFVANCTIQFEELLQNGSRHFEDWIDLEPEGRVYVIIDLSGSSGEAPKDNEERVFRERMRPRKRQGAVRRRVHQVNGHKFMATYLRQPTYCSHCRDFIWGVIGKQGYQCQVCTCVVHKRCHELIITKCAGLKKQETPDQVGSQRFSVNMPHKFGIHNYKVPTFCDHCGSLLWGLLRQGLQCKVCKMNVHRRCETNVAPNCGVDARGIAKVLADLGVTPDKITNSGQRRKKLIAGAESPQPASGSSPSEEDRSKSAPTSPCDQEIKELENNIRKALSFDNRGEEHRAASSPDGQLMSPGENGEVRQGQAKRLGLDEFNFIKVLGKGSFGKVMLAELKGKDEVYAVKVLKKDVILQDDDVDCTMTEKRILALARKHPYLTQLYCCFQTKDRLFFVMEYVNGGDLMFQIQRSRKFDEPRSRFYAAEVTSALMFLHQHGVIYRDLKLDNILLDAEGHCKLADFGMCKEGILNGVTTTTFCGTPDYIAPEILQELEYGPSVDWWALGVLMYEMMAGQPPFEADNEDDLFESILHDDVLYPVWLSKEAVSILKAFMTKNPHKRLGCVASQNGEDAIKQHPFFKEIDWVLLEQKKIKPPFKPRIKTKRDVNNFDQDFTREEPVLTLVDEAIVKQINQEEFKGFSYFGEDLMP

KDR kinase = KDR kinase (Homo sapiens, UniProt P35968); assay: KDR AlphaScreen assay; conditions: KDR IC50 (μM)
Chain of KDR kinase (P35968 20-1356): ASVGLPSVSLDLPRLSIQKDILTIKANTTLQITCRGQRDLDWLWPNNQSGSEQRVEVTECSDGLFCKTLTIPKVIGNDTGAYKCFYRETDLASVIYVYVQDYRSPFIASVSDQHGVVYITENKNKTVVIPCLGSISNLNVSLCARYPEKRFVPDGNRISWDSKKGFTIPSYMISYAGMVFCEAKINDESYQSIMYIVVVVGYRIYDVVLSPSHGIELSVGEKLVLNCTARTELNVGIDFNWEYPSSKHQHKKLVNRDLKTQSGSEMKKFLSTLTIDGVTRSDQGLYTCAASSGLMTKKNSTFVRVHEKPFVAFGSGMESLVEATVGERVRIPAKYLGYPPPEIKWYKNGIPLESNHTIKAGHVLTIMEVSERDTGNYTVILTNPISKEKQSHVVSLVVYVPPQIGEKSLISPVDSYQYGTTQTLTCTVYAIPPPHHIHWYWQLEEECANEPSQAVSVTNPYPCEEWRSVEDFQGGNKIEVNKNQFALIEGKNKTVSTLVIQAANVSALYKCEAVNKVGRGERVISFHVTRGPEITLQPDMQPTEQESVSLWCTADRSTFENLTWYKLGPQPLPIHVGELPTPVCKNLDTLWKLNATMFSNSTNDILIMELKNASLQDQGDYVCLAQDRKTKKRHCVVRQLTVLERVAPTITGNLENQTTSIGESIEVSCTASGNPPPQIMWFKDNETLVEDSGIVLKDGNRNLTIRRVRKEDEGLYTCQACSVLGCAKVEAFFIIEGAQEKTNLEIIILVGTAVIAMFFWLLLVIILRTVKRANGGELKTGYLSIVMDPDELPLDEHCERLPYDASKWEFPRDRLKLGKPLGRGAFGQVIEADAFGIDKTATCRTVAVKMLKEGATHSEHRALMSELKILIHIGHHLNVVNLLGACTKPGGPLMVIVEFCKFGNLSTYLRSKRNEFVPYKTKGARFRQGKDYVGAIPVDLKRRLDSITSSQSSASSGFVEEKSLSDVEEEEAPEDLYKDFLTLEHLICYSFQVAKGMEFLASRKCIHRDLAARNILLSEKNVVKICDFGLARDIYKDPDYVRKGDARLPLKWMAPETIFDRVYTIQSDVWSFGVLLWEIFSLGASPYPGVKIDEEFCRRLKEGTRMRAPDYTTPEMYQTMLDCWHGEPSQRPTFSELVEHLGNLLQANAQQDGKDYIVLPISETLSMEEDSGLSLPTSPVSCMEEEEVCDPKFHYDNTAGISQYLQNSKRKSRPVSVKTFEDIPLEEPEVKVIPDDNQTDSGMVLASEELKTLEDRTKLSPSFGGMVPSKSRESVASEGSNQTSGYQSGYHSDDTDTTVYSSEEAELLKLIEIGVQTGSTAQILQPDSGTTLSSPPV

Row | SMILES | IC50 (Pim1 kinase; read-out: IC50 (μM) PIM1) [µM] | IC50 (Pim2 kinase; read-out: IC50 (μM) PIM2) [µM] | IC50 (Pim3 kinase; read-out: IC50 (μM) PIM3) [µM] | IC50 [1] [nM] | IC50 (KDR kinase) [µM] | IC50 (Pim1 kinase; read-out: PIM1 IC50) [µM] | IC50 (Pim2 kinase; read-out: PIM2 IC50) [µM] | IC50 (Pim3 kinase; read-out: PIM3 IC50) [µM]
1 | Cc1cnc(N)c(C(=O)Nc2cc(C(=O)c3ccccc3)ccc2N2CCNCC2)n1 [Example 440, 3-amino-6-methyl-pyrazine-2-carboxylic acid (5-benzoyl-2-piperazin-1-yl-phenyl)-amide] | > 25 | > 25 | 10 to 25 | > 25000 | 1 to 10 |  |  | 
2 | Nc1ncc(Br)nc1C(=O)Nc1[nH]c(=O)ncc1N1CCCCC1 [Example 132, 3-amino-6-bromo-N-(2-oxo-5-piperidin-1-yl-2,3-dihydro-pyrimidin-4-yl)pyrazine-2-carboxamide] | < 1 | < 1 | < 1 | < 1000 | < 1 |  |  | 
3 | NC(=O)c1ccc(N2CCCCC2)c(NC(=O)c2nc(Br)cnc2N)c1 [Example 133, 3-amino-6-bromo-N-(5-carbamoyl-2-piperidin-1-yl-phenyl)pyrazine-2-carboxamide] | < 1 | < 1 | < 1 | > 25000 | 1 to 10 |  |  | 
4 | COc1ncc(-c2cnc(N)c(C(=O)Nc3ccccc3N3CCNCC3)n2)cn1 [Example 391, 3-amino-6-(2-methoxy-pyrimidin-5-yl)-pyrazine-2-carboxylic acid (2-piperazin-1-yl-phenyl)-amide] | 1 to 10 | > 25 | 1 to 10 | 1000 to 10000 | > 25 |  |  | 
5 | NC(=O)c1cccc(-c2cnc(N)c(C(=O)Nc3ccccc3N3CCCC(N)C3)n2)c1 (stereo not shown) [Example 373, 3-amino-6-(3-carbamoyl-phenyl)-pyrazine-2-carboxylic acid [2-(3-amino-piperidin-1-yl)-phenyl]-amide] |  |  |  | < 1000 | < 1 |  |  | 
6 | Cc1ccccc1-c1cnc(N)c(C(=O)Nc2[nH]c(=O)ncc2N2CCCC(N)C2)n1 (stereo not shown) [Example 400, 3-amino-6-o-tolyl-pyrazine-2-carboxylic acid [5-(3-amino-piperidin-1-yl)-2-oxo-2,3-dihydro-pyrimidin-4-yl]-amide] |  |  |  | 1000 to 10000 | < 1 |  |  | 
7 | Nc1ncc(-c2ccccc2F)nc1C(=O)Nc1ccccc1N1CCCC(N)C1 (stereo not shown) [Example 374, 3-amino-6-(2-fluoro-phenyl)-pyrazine-2-carboxylic acid [2-(3-amino-piperidin-1-yl)-phenyl]-amide] |  |  |  | < 1000 | 1 to 10 |  |  | 
8 | CSc1nc(N)cc(-c2ccncc2NC(=O)c2nc(-c3c(F)cccc3F)ccc2N)n1 [Example 275, 3-Amino-6-(2,6-difluoro-phenyl)-pyridine-2-carboxylic acid [4-(6-amino-2-methylsulfanyl-pyrimidin-4-yl)-pyridin-3-yl]-amide] | < 1 | < 1 | < 1 |  | 10 to 25 |  |  | 
9 | CSc1nc(N)cc(-c2ccncc2NC(=O)c2nc(-c3cc(C(=O)N(C)C)ccc3F)ccc2N)n1 [Example 535, 3-Amino-6-(5-dimethylcarbamoyl-2-fluoro-phenyl)-pyridine-2-carboxylic acid [4-(6-amino-2-methylsulfanyl-pyrimidin-4-yl)-pyridin-3-yl]-amide] |  |  |  |  | 10 to 25 | < 1 | < 1 | < 1
10 | COc1ccc(-c2cnc(N)c(C(=O)Nc3ccccc3N3CCCC(N)C3)n2)cc1 (stereo not shown) [Example 375, 3-amino-6-(4-methoxy-phenyl)-pyrazine-2-carboxylic acid [2-(3-amino-piperidin-1-yl)-phenyl]-amide] |  |  |  | < 1000 | 1 to 10 |  |  | 
11 | Cc1cc(-c2ccncc2NC(=O)c2nc(-c3c(F)ccc(OC(C)C)c3F)ccc2N)cc(N)n1 [Example 538, 3-Amino-6-(2,6-difluoro-3-isopropoxy-phenyl)-pyridine-2-carboxylic acid (2′-amino-6′-methyl-[4,4′]bipyridinyl-3-yl)-amide] |  |  |  |  | 10 to 25 | < 1 | < 1 | < 1
12 | CC(=O)Nc1cccc(-c2ncc(N)c(C(=O)Nc3cnccc3N3CCC[C@H](N)C3)n2)c1 [Example 544, 2-(3-Acetylamino-phenyl)-5-amino-pyrimidine-4-carboxylic acid (3-amino-3,4,5,6-tetrahydro-2H-[1,4′]bipyridinyl-3′-yl)-amide] |  |  |  |  | 10 to 25 | < 1 | < 1 | < 1
13 | Nc1ccc(-c2ccccc2F)nc1C(=O)Nc1cnccc1-c1ccnc(O)c1 [Example 614, 3-amino-6-(2-fluorophenyl)-N-(2′-hydroxy-4,4′-bipyridin-3-yl)pyridine-2-carboxamide] |  |  |  |  | 1 to 10 | < 1 | < 1 | < 1
14 | Cc1cnc(O)cc1-c1ccncc1NC(=O)c1nc(-c2c(F)cccc2F)ccc1N [Example 612, 3-amino-6-(2,6-difluorophenyl)-N-(2′-hydroxy-5′-methyl-4,4′-bipyridin-3-yl)pyridine-2-carboxamide] |  |  |  |  | 1 to 10 | < 1 | 1 to 10 | < 1
15 | CCCOc1ccc(F)c(-c2ncc(N)c(C(=O)Nc3cnccc3N3CCC[C@H](N)C3)n2)c1F [Example 545, 5-Amino-2-(2,6-difluoro-3-propoxy-phenyl)-pyrimidine-4-carboxylic acid (3-amino-3,4,5,6-tetrahydro-2H-[1,4′]bipyridinyl-3′-yl)-amide] |  |  |  |  | 10 to 25 | < 1 | < 1 | < 1
16 | Nc1cnc(-c2c(F)cccc2F)nc1C(=O)Nc1cnccc1N1CCCC(O)(C(F)(F)F)C1 (stereo not shown) [Example 165, 5-Amino-2-(2,6-difluoro-phenyl)-pyrimidine-4-carboxylic acid (3-hydroxy-3-trifluoromethyl-3,4,5,6-tetra-hydro-2H-[1,4′]bipyridinyl-3′-yl)-amide] | < 1 | < 1 | < 1 |  | 10 to 25 |  |  | 
17 | Nc1cnc(-c2ccccc2F)nc1C(=O)Nc1cnccc1N1CCCC(O)(C(F)(F)F)C1 (stereo not shown) [Example 166, 5-Amino-2-(2-fluoro-phenyl)-pyrimidine-4-carboxylic acid (3-hydroxy-3-trifluoromethyl-3,4,5,6-tetrahydro-2H-[1,4′]bi-pyridinyl-3′-yl)-amide] | < 1 | < 1 | < 1 |  | 10 to 25 |  |  | 
18 | COc1ccc(F)c(-c2ncc(N)c(C(=O)Nc3cnccc3N3CCC[C@H](N)C3)n2)c1 [Example 549, 5-Amino-2-(2-fluoro-5-methoxy-phenyl)-pyrimidine-4-carboxylic acid (3-amino-3,4,5,6-tetrahydro-2H-[1,4′]bipyridinyl-3′-yl)-amide] |  |  |  |  | 10 to 25 | < 1 | < 1 | < 1
19 | Nc1ccc(C2CCCC2)nc1C(=O)Nc1cnccc1N1CCC[C@H](N)C1 [Example 644, 3-Amino-6-cyclopentyl-pyridine-2-carboxylic acid (3-amino-3,4,5,6-tetrahydro-2H-[1,4′]bipyridinyl-3′-yl)-amide] |  |  |  |  | 10 to 25 | < 1 | < 1 | < 1
20 | Nc1ccc(-c2scc3c2OCCO3)nc1C(=O)Nc1cnccc1N1CCC[C@H](N)C1 [Example 447, 3-Amino-6-(2,3-dihydro-thieno[3,4-b][1,4]dioxin-5-yl)-pyridine-2-carboxylic acid (3-amino-3,4,5,6-tetrahydro-2H-[1,4′]bipyridinyl-3′-yl)-amide] | < 1 | < 1 | < 1 |  | 10 to 25 |  |  | 
